Test results reported in ChEMBL document CHEMBL1201862, “PubChem BioAssay data set” (2004).
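These data come from cells grown in 96-well plates and exposed to compound for 48 hours at five concentrations. GI50 marks 50% less growth.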 The source made the active and inactive calls. No stated cut-off is given here; in the data, active = GI50 up to about 1.1 µM and inactive = higher. Where a SMILES comes first, the peptide text is derived from it. [ ]: non-standard residue; d: D form. The star is where a group is joined. mTyr = N[CH](Cc1cccc(O)c1)C(=O)O; Cbz = O=C(OCc1ccccc1)*; OBn = c1ccc(CO*)cc1

Legend:
Assay in all cases: inhibition of tumour cell growth, NCI panel, 48 h
[1] = tested on: SK-MEL-5
[2] = tested on: HT-29
[3] = tested on: Malme-3M
[4] = tested on: HCC 2998
[5] = tested on: SNB-19
[6] = tested on: OVCAR-4
[7] = tested on: TK-10
[8] = tested on: 786-0
[9] = tested on: NCI-H23
[10] = tested on: HCT-116
[11] = tested on: RPMI-8226
[12] = tested on: OVCAR-8
[13] = tested on: SF-539
[14] = tested on: HOP-92
[15] = tested on: UACC-62
[16] = tested on: CCRF-CEM
[17] = tested on: MCF7
[18] = tested on: SK-MEL-28
[19] = tested on: MDA-MB-231
[20] = tested on: DU-145

Measured: GI50

Cc1cc(-c2cscn2)c(O)c([N+](=O)[O-])c1
inactive: [1] 31 µM | [2] 89.3 µM | [3] 70.6 µM | [4] 81.3 µM | [5] > 100 µM | [6] 82.6 µM | [7] 52.7 µM | [8] 60.8 µM | [9] 58.3 µM | [10] 49.7 µM | [11] 52.6 µM | [12] 48.3 µM | [13] 56 µM | [14] 93.5 µM | [15] 62.7 µM | [16] 41 µM | [17] 21.4 µM

O=C1Nc2ccc(Br)cc2/C1=N/Nc1ccc([N+](=O)[O-])cc1
inactive: [1] 25 µM | [2] 57.9 µM | [3] 24.1 µM | [4] 33.3 µM | [5] 19.3 µM | [6] 17.3 µM | [7] 18.3 µM | [8] 11.4 µM | [9] 22 µM | [10] 17.1 µM | [18] 16.8 µM | [11] 16.4 µM | [12] 14.4 µM | [13] 14.2 µM | [14] 13.6 µM | [15] 27.9 µM | [16] 33 µM

O=C(Cc1ccccc1)C(c1ccccc1)S(=O)(=O)c1ccccc1 (stereo unspecified)
inactive: [1] > 100 µM | [2] > 100 µM | [3] > 100 µM | [4] > 100 µM | [5] > 100 µM | [6] 73.3 µM | [7] > 100 µM | [8] > 100 µM | [9] 77.4 µM | [10] 59.3 µM | [18] > 100 µM | [11] > 100 µM | [12] > 100 µM | [13] > 100 µM | [14] 81.5 µM | [15] 75.2 µM | [16] > 100 µM

O=C(Cc1ccccc1)Oc1ccc2c(-c3ccccc3)c(C(=O)Nc3ccc(Cl)cc3)c(=O)oc2c1
inactive: [1] > 100 µM | [2] > 100 µM | [3] > 100 µM | [4] > 100 µM | [5] > 100 µM | [6] > 100 µM | [7] > 100 µM | [8] > 100 µM | [9] > 100 µM | [10] > 100 µM | [18] > 100 µM | [11] > 100 µM | [12] > 100 µM | [13] > 100 µM | [14] > 100 µM | [15] > 100 µM | [16] > 100 µM

O=C1CNNC(Cn2nc(-c3ccccc3)c3ccccc3c2=O)=N1
inactive: [1] > 100 µM | [2] > 100 µM | [3] > 100 µM | [4] > 100 µM | [5] > 100 µM | [6] > 100 µM | [7] > 100 µM | [8] > 100 µM | [9] > 100 µM | [10] > 100 µM | [18] > 100 µM | [11] > 100 µM | [12] > 100 µM | [13] > 100 µM | [14] > 100 µM | [15] > 100 µM | [16] > 100 µM

COC(=O)CNC(=O)Nc1cc(N2C(=O)ON3C2C(C)(C)N(O)C3(C)C)ccc1C (stereo unspecified)
inactive: [1] > 100 µM | [2] > 100 µM | [3] > 100 µM | [4] > 100 µM | [5] > 100 µM | [6] > 100 µM | [7] > 100 µM | [8] > 100 µM | [19] > 100 µM | [9] > 100 µM | [10] > 100 µM | [18] > 100 µM | [12] > 100 µM | [13] > 100 µM | [15] > 100 µM | [16] > 100 µM | [17] > 100 µM

O=C(O)CNn1c(SCC(=O)O)nnc(/C=C/c2c(O)ccc3ccccc23)c1=O
inactive: [1] 18.7 µM | [2] 41.9 µM | [3] 40.3 µM | [20] 3.16 µM | [4] > 100 µM | [5] 64.7 µM | [6] 14.1 µM | [8] 30.3 µM | [9] 17.1 µM | [10] 28.8 µM | [18] 34.3 µM | [11] 29.8 µM | [12] 3.79 µM | [13] > 100 µM | [15] 21.3 µM | [16] 3.57 µM | [17] 24 µM

COc1ccc(-c2c(N)n(-c3cccc(C(=O)O)c3)c(=O)c3cc([N+](=O)[O-])ccc23)cc1
inactive: [1] > 100 µM | [2] > 100 µM | [20] > 100 µM | [4] > 100 µM | [5] > 100 µM | [6] > 100 µM | [7] > 100 µM | [8] > 100 µM | [9] > 100 µM | [10] > 100 µM | [18] > 100 µM | [11] > 100 µM | [12] > 100 µM | [13] > 100 µM | [15] > 100 µM | [16] > 100 µM | [17] > 100 µM

O=C1c2ccccc2C2(O)Oc3cccc(O)c3C12O (stereo unspecified)
inactive: [1] > 100 µM | [2] > 100 µM | [3] > 100 µM | [4] > 100 µM | [5] > 100 µM | [6] > 100 µM | [7] > 100 µM | [8] > 100 µM | [9] > 100 µM | [10] > 100 µM | [18] > 100 µM | [11] > 100 µM | [12] > 100 µM | [13] > 100 µM | [14] > 100 µM | [15] 62.5 µM | [16] > 100 µM

O=C(CSc1c2ccccc2nc2ccccc12)Nc1ccccc1-c1ccccc1NC(=O)CSc1c2ccccc2nc2ccccc12
inactive: [1] 12.8 µM | [2] 34.8 µM | [3] 30.8 µM | [4] 17.4 µM | [5] 22.4 µM | [6] 1.48 µM | [7] 60.4 µM | [8] 6.76 µM | [9] 18.9 µM | [10] 27.2 µM | [18] 20.8 µM | [11] 4.46 µM | [12] 28.5 µM | [13] 14.4 µM | [14] 30.8 µM | [15] 18 µM | [16] > 24.6 µM

COc1ccc2oc(C(=O)O)c3c2c1CCC3CCC(=O)O (stereo unspecified)
inactive: [1] > 100 µM | [2] > 100 µM | [3] > 100 µM | [4] > 100 µM | [5] > 100 µM | [6] > 100 µM | [7] > 100 µM | [8] > 100 µM | [9] > 100 µM | [10] > 100 µM | [18] > 100 µM | [11] > 100 µM | [12] > 100 µM | [13] > 100 µM | [14] > 100 µM | [15] > 100 µM | [16] > 100 µM

O=C1CNc2cc(N3CCOCC3)ccc2N1
inactive: [1] > 100 µM | [2] > 100 µM | [3] > 100 µM | [20] > 100 µM | [4] > 100 µM | [5] > 100 µM | [6] > 100 µM | [7] > 100 µM | [8] > 100 µM | [19] > 100 µM | [9] > 100 µM | [10] > 100 µM | [18] > 100 µM | [11] > 100 µM | [12] > 100 µM | [14] > 100 µM | [15] 64.9 µM | [16] > 100 µM

Nc1cc(OCC2CCCCC2)nc(N)n1
inactive: [1] 37.5 µM | [2] > 100 µM | [3] > 100 µM | [20] > 100 µM | [4] > 100 µM | [5] > 100 µM | [6] > 100 µM | [7] > 100 µM | [8] > 100 µM | [19] > 100 µM | [9] 84.5 µM | [10] > 100 µM | [18] > 100 µM | [11] > 100 µM | [12] > 100 µM | [13] > 100 µM | [14] > 100 µM | [15] > 100 µM | [16] > 100 µM

COC(=O)C(Cc1cccc(O)c1)NC(=O)C(CC(=O)OCc1ccccc1)NC(=O)OCc1ccccc1 (stereo unspecified) (Cbz-Asp(OBn)-[mTyr]-OMe; configuration not given here)
inactive: [1] > 100 µM | [2] 88.5 µM | [3] > 100 µM | [4] > 100 µM | [5] 65.8 µM | [7] > 100 µM | [8] > 100 µM | [19] > 100 µM | [9] > 100 µM | [10] > 100 µM | [18] > 100 µM | [11] 70.5 µM | [12] > 100 µM | [14] 29.1 µM | [15] 65.5 µM | [17] > 100 µM

Cc1cccc(C)c1NC(=O)C(=O)CC(=O)/C=C/c1ccccc1
inactive: [1] > 100 µM | [2] > 100 µM | [3] > 100 µM | [4] > 100 µM | [5] > 100 µM | [6] > 100 µM | [7] > 100 µM | [8] > 100 µM | [19] > 100 µM | [9] > 100 µM | [10] > 100 µM | [18] > 100 µM | [11] > 100 µM | [12] > 100 µM | [13] > 100 µM | [14] > 100 µM | [15] > 100 µM | [16] > 100 µM | [17] > 100 µM

Cc1cccc2c(=O)c([Se]c3coc4c(C)cccc4c3=O)coc12
inactive: [1] 18.2 µM | [2] 25.6 µM | [3] 19.1 µM | [4] 21.2 µM | [5] 19.4 µM | [6] 16.7 µM | [7] 29.9 µM | [8] 17.3 µM | [9] 17.2 µM | [10] 5.68 µM | [18] 16.7 µM | [11] 29.2 µM | [12] 15.9 µM | [13] 16.3 µM | [14] 20.8 µM | [15] 17.8 µM | [16] 31.4 µM
